From patent US11376266B2, “Antitumor agent” (KEIO UNIVERSITY, priority 2016, dated 2022)
Values after ≈ are worked out from the molar mass of the structure shown. Like-named read-outs stand apart in the source and are kept apart here.

Assays:
[1] = tested on: human colon cancer HCT-116 cells; assay: Antitumor effect of sulfasalazine in mice bearing subcutaneous HCT-116 tumors; type: in vivo, KSN nude mice; details: 250 mg/kg intraperitoneally once per day; Days 14 and 28 after transplantation; versus saline control; FIG. 1
Method: The human colon cancer HCT-116 cells that proliferate in a CD44v-dependent manner were administered subcutaneously to KSN nude mice to form tumors. The cells were transplanted into 10 mice. 250 mg/kg of sulfasalazine or 100 μl of saline was injected to each of groups of 5 mice intraperitoneally once per day. Diameter of tumors was measured on Days 14 and 28 after transplantation and their weights were calculated based on the diameters and compared between the two groups.

[2] = Solubility test in pure water and saline (UV absorption at 238 nm); type: physicochemical; details: thermodynamic from solid, room temperature, PEGylated values calculated as sulfasalazine
Method: The aqueous solutions thus obtained were centrifuged at 8000 rpm for 30 minutes at room temperature, and 50 μL of each supernatant was taken. One microliter of 5N NaOH solution was added to the supernatant and UV absorption (at 238 nm) was measured for the resulting solution, thereby sulfasalazine concentration in the solution (solubility in pure water and saline) was calculated.

T98G cell line = details: 0 to 1250 μM calculated as sulfasalazine, two days, FIG. 6
Method: Using the same medium as in (3), the T98G cell line was seeded onto 96-well plates at 3,000 cells/well. On the next day, sulfasalazine and the type-A PEGylated sulfasalazines were added at 0 to 1250 μM calculated in concentrations of sulfasalazine. Two days later, cell viability was measured using a CellTiter-Glo (Promega).

- solubility ([2]; pure water, water, read-out: Saturated solubility, pure water): 50 µg/mL (≈ 126 µM)
- solubility ([2]; saline, saline or isotonic, read-out: Saturated solubility, saline): 37 µg/mL (≈ 92.9 µM)
SMILES: O=C(O)c1cc(/N=N/c2ccc(S(=O)(=O)Nc3ccccn3)cc2)ccc1O [Sulfasalazine]
- tumor growth (tumor weight calculated from diameter) [1]: significantly slower
- cell viability, concentration dependence (cytotoxicity) (T98G cell line): substantially identical concentration dependence
